According to patent US20220184162A1, “PREPARATIONS CONTAINING BERRY EXTRACTS FOR USE IN TREATING CANCER” (Evonik Operations GmbH, priority 2019, published 2022):

How the values were obtained:
[1] = system: isolated PBMCs (non-activated); assay: Activating effect on isolated non-activated PBMCs (CellTrace CFSE proliferation, flow cytometry); format: cell-based, human; details: for Median Fluorescence Day 7 Average / Median Fluorescence Day 2 Average: CellTrace CFSE; for Median Fluorescence Day 2 Average: no activation stimulus
Excerpt: (§1) Upon recognition of a foreign substance (foreign peptide presented on MHC) by the T cell receptor (TCR) and stimulation of the co-receptor CD28 the T cells start to proliferate. Thus, proliferation is a clear indication of T cell activation. Another classic activation marker for T cells is CD25, the high affinity receptor for the interleukin IL-2. This protein is not expressed by resting T cells and transcription is induced by TCR signaling. Thus, the presence of CD25 on the surface of T cells is a clear indicator of T cell activation. On the contrary, T cell exhaustion correlates with the signaling-induced expression of PD-1 on the surface of the T cells. To test the impact of substances on T cell activation, proliferation as well as CD25 and PD-1 upregulation, are used as readouts. Primary human Peripheral blood mononuclear cells (PBMCs) isolated from the blood of healthy donors (including primary T-cells) were used. PBMC cells represent a heterogenic population with 45-80% T cells, 5-20% B cells, 10-25% monocytes and 5-20% NK cells.
(§2) CellTrace™ stock solution was prepared according to the manual; addition of 15 μL DMSO to the CellTrace™ reagent and mixed well. Cell suspension was adjusted to 10^6 cells/mL in RPMI without FBS before addition of 1 μL CellTrace™ stock solution to each mL of cell suspension. After 20 minutes incubation (protected from light) of the cells at room temperature, five times the volume of culture medium was added and then again incubated for 5 min at room temperature. Afterwards the cells were centrifuged (300×g for 5 min) and the pellet resuspended in fresh culture medium. As last step the cells were incubated at 37° C. with 5% CO2 for 1-2 hours before the set-up of the experiment.
(§3) Following CFSE labelling and recovering at 37° C. with 5% CO2, cells were mixed with the extract as follows: 20 μL of extract were placed in a 96-well u-bottom culture plate as triplicates, then 180 μL cell suspension was added on top and mixed. Final concentration of the cells was 5*10^4 cells/well (=2.5*10^5 cells/mL).
(§4) Sample format: 96 well with 200 μL/well and 10,000 events measured per sample. FACS (fluorescence activated cell sorting) gating was performed via SSC (sideward scatter) versus FSC (forward scatter) density blot. A gate has been applied to identify viable cells. Percentage of viable cells was determined for all samples of a 96-well plate.
(§5) CellTrace™ CFSE median fluorescence (488 nm excitation and a 530/30 nm bandpass emission filter): From viable cell population single cells were determined and viable, single cells within the gate defined in a histogram to evaluate the level of fluorescence intensity of cells labelled with CellTrace™ CFSE. Cell proliferation was followed for 7 days. With increasing level of proliferation median fluorescence decreases, shown as shift of peak from right to left within the flow cytometer; non-labeled cells shown on the far-left side. Median fluorescence was determined as read-out. Earliest observable influence on proliferation and activation was expected after 3 days of incubation with the test compounds.
All cells (40*10^6) of one vial of frozen PBMC's (non-activated) were used for CFSE staining and cultured with extracts as follows: Day 0-3 in RPMI 1640 with 10% FBS, 1% HEPS (10 mM); day 3-7 in RPMI 1640 with 10% FBS, 1% HEPS (10 mM) and 100 U/mL IL-2.
(§6) Water, DMSO or DMF were used as negative control; UCHT1 (anti-CD3) antibody as positive control. The samples plate set-up was used as follows:
(§7) Half medium change with fresh extracts of final concentration was done every day.
To evaluate, if the chosen test compounds could have an activating effect on isolated PBMCs (Peripheral Blood Mononuclear Cells) and induce them to proliferate, PBMCs were incubated together with the test compounds in different concentrations. […]

[2] = system: CD8+ T cells in activated PBMCs; assay: Analysis of T cell populations via flow cytometry, CD8+; format: cell-based, human; details: FIG. 6
Procedure: (§8) Sample preparation and plate set-up was used as described before in the T cell activation assay. Primary PBMCs were seeded on activating surface (anti-CD3, anti-CD28) with medium containing 1000 U/ml IL-2 for 2 days. The activated PBMCs were then cultured with the prepared sample concentrations in medium containing 100 U/ml IL-2 every day from day 3 on after isolation. Half medium change with fresh samples and flow cytometry measurement was performed every day. All cells for flow cytometry were labelled with an antibody mixture containing Annexin V_Alexa594, anti-CD4_APC and anti-CD8_PE for CD-marker as well as live-dead staining.
(§9) PBMS were activated by using an activating surface and the addition of Interleukin-2 to the cell culture media. The activated PBMCs, which contain T-cells as the most prominent cell type, were treated with the berry extracts or the anthocyanins from day 3 on after isolation. To evaluate the different T cell population flow cytometry analysis were performed with anti-CD4 and anti-CD8 antibodies in combination with Annexin V staining as live-dead-staining.

activated PBMCs = assay: Influence on proliferation of activated PBMCs (anti-CD3/anti-CD28, IL-2; CellTrace CFSE); format: cell-based, human; details: for Median Fluorescence Day 2 Average / Median Fluorescence Day 3 Average: CellTrace CFSE, activated PBMCs, 100 U/ml IL-2; for proliferation of activated PBMCs on day 3 (in words): versus water, maltodextrin or solvent control
Excerpt: as §1, §2, §3, §4, §5
PBMCs isolated from blood were activated for 2 days on an activating surface with anti-CD3 (UCHT1) and anti-CD28. Activated PBMCs were then induced to proliferate by adding 1000 U/ml IL-2. Therefore, the cells were transferred to a new dish without activating antibodies and 2 days later the activated cells were used to set up the experiment. 40*10^6 cells were used for CFSE staining and cultured with extracts in RPMI 1640 with 10% FBS, 1% HEPS (10 mM), 0.1% β-mecaptoethanol (50 μM), 0.5% Pen/Strep and 100 U/ml IL-2.
as §6, §7
In the next experiment the effect of the test compounds on the proliferation of activated PBMCs was evaluated. […]

[3] = system: CD4+ T cells in activated PBMCs; assay: Analysis of T cell populations via flow cytometry, CD4+; format: cell-based, human; details: FIG. 7
Procedure: as §8, §9

[4] = system: Jurkat cells (T cell leukemia); assay: Cell viability (Cell Titer Glo, ATP luminescence); format: cell-based; details: increasing concentrations; FIG. 8A, FIG. 9
Procedure: Similar cell viability assays were performed with additional cell lines (HeLa, Jurkat, Mt4 and THP-1) and using the Cell Titer Glo Assay. In order to further evaluate the effect of Healthberry® 865 on T cell populations and specifically the CD4+ populations, additional cell viability analysis was performed. On the basis that Healthberry® 865 has an influence on the CD4+ cell populations and additionally on the activation status of T cells, specifically T cell leukemia/lymphoma cell lines as Jurkat (T cell leukemia) and Mt4 (HTLV-I positive; human T-cell lymphotropic virus type I retrovirus causes adult T-cell leukemia-lymphoma) cells were chosen as in vitro models. Furthermore, control cell lines were chosen, which are not CD4^+ such as HeLa cells (epithelial cervix carcinoma) or which represent another type of leukemia such as THP-1 (acute monocytic leukemia). […] Cell viability tests were performed with the T cell leukemia cell lines Jurkat (FIG. 8A) and Mt4 (FIG. 8B) as well as with control cell lines such as the CD4 negative cervix carcinoma cell line HeLa (FIG. 8C) and the monocytic leukemia cell line THP 1 (FIG. 8D). Cell viability was evaluated based on ATP amount and via luminescence measurement. Samples were tested in triplicates.

Row | SMILES | Median Fluorescence Day 7 Average ([1]; 15 μg/mL, IL-2 from day 3) | Median Fluorescence Day 2 Average ([1]; 15 μg/mL) | Median Fluorescence Day 7 Average ([1]; 30 μg/mL, IL-2 from day 3) | Median Fluorescence Day 2 Average ([1]; 30 μg/mL) | Median Fluorescence Day 7 Average ([1]; 75 μg/mL, IL-2 from day 3) | Median Fluorescence Day 2 Average ([1]; 75 μg/mL) | Median Fluorescence Day 2 Average (activated PBMCs; 15 μg/mL) | Median Fluorescence Day 3 Average (activated PBMCs; 15 μg/mL) | Median Fluorescence Day 2 Average (activated PBMCs; 30 μg/mL) | Median Fluorescence Day 3 Average (activated PBMCs; 30 μg/mL) | Median Fluorescence Day 2 Average (activated PBMCs; 75 μg/mL) | Median Fluorescence Day 3 Average (activated PBMCs; 75 μg/mL) | proliferation of activated PBMCs on day 3 (in words) (activated PBMCs) | further results
1 | C[C@@H]1O[C@@H](OC[C@H]2O[C@@H](Oc3cc4c(O)cc(O)cc4[o+]c3-c3cc(O)c(O)c(O)c3)[C@H](O)[C@@H](O)[C@@H]2O)[C@H](O)[C@H](O)[C@H]1O [D3R, delphinidin 3-rutinoside] | 20821 | 34772 | 25171 | 34646 | 44248 | 37453 | 14407 | 6602 | 15685 | 8150 | 19716 | 13927 | dose-dependent and significant decrease of proliferation | activation / proliferation of non-activated PBMCs (in words) ([1]; 2 days up to 7 days incubation, IL-2 from day 3): slight decrease of proliferation; change of CD8+ T cells in comparison to controls [2]: most significant effects; change of CD4+ T cells in comparison to controls [3]: most significant effects
2 | C[C@@H]1O[C@@H](OC[C@H]2O[C@@H](Oc3cc4c(O)cc(O)cc4[o+]c3-c3ccc(O)c(O)c3)[C@H](O)[C@@H](O)[C@@H]2O)[C@H](O)[C@H](O)[C@H]1O [C3R, cyanidin 3-rutinoside] | 21030 | 33603 | 21539 | 33737 | 22855 | 34486 | 14630 | 6153 | 15317 | 7228 | 17032 | 11086 | dose-dependent and significant decrease of proliferation | 
3 | OC[C@H]1O[C@@H](Oc2cc3c(O)cc(O)cc3[o+]c2-c2cc(O)c(O)c(O)c2)[C@H](O)[C@@H](O)[C@@H]1O [D3G, Delphinidin 3-glucoside] |  |  |  |  |  |  |  |  |  |  |  |  |  | cell viability (ATP amount, luminescence) [4]: specific reduction
4 | CC1=C(/C=C/C(C)=C/C=C/C(C)=C/C=C/C=C(C)/C=C/C=C(C)/C=C/C2=C(C)C(=O)[C@@H](O)CC2(C)C)C(C)(C)C[C@H](O)C1=O [Astaxanthin, reference compound] |  |  |  |  |  |  |  |  |  |  |  |  | slower proliferation | Median Fluorescence Day 7 Average ([1]; 2 μg/mL, IL-2 from day 3): 20201; Median Fluorescence Day 2 Average ([1]; 2 μg/mL): 33336; Median Fluorescence Day 7 Average ([1]; 4 μg/mL, IL-2 from day 3): 19444; Median Fluorescence Day 2 Average ([1]; 4 μg/mL): 32336; Median Fluorescence Day 7 Average ([1]; 10 μg/mL, IL-2 from day 3): 16442; Median Fluorescence Day 2 Average ([1]; 10 μg/mL): 36178; Median Fluorescence Day 2 Average (activated PBMCs; 2 μg/mL): 14190; Median Fluorescence Day 3 Average (activated PBMCs; 2 μg/mL): 6502; Median Fluorescence Day 2 Average (activated PBMCs; 4 μg/mL): 15365; Median Fluorescence Day 3 Average (activated PBMCs; 4 μg/mL): 10055; Median Fluorescence Day 2 Average (activated PBMCs; 10 μg/mL): 19750; Median Fluorescence Day 3 Average (activated PBMCs; 10 μg/mL): 15342
